Among the data in the Kinase Knowledgebase extract (Sharma et al. 2016) are IC50 values, retold here.

pIC50: −log10 of the molar value. Where only a bound is given, the exact number is not on record here.

PIK3CG (human), sequence (P48736 whole entry, looked up): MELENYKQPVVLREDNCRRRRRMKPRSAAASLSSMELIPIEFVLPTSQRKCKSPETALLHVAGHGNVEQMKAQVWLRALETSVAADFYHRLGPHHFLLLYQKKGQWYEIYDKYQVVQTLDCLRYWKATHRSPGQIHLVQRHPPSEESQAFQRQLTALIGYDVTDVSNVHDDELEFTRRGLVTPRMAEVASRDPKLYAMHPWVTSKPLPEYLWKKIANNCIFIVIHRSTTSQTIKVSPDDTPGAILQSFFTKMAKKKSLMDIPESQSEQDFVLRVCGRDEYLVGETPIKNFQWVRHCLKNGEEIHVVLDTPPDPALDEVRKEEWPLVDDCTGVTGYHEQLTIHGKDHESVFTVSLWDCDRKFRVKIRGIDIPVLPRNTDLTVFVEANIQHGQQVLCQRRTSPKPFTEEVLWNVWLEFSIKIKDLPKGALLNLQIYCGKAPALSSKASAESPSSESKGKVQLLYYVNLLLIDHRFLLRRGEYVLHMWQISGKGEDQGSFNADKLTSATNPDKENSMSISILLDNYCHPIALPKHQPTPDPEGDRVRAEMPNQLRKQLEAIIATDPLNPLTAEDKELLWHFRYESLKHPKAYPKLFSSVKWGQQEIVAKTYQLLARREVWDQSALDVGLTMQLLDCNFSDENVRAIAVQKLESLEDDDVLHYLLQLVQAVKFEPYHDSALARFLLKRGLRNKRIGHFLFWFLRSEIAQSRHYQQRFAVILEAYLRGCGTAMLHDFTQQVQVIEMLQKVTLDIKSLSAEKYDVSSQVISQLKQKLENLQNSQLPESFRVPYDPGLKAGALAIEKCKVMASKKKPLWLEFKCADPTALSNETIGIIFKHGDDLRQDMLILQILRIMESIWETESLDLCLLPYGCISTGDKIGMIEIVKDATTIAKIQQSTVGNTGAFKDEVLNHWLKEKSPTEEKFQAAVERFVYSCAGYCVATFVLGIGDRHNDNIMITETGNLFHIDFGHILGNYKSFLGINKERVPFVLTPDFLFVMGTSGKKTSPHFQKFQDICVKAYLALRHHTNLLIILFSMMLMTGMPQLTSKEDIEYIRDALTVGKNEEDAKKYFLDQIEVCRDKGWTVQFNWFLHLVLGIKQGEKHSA

The test addresses PIK3CG (human) (UniProt P48736). In words: Assessment of PIK3CG Kinase Activity.
One may read the pIC50 as −log10 of the IC50, conventionally taken in molar units. `CNC1(C#Cc2ccc(Cl)c(-c3ncc4c(n3)-c3sc(NC(C)=O)nc3CC4)c2)CCCCC1`: the pIC50 was above 6.22.
The figure for `CC(=O)Nc1nc2c(s1)-c1nc(-c3cc(C#CCNC4CCN(C)CC4)ccc3Cl)ncc1CC2` is above 6.22; for `CC(=O)Nc1nc2c(s1)-c1nc(-c3cc(C#CCN4CC[S+]([O-])CC4)ccc3Cl)ncc1CC2` it is above 6.22; for `CNC(=O)Nc1nc2c(s1)-c1nc(-c3cc(C#CC4(OC)CCN(C)CC4)ccc3Cl)ncc1CC2` it is above 6.22.
Under `CC(=O)Nc1nc2c(s1)-c1nc(-c3cc(C#CCCCN4CCOCC4)ccc3Cl)ncc1CC2` stands above 6.22; under `CC(=O)Nc1nc2c(s1)-c1nc(-c3cc(C#CCCN4CCN(C)CC4)ccc3Cl)ncc1CC2`, above 6.22; under `CC(=O)Nc1nc2c(s1)-c1nc(-c3cc(C#CCN(C)C(=O)C(C)C)ccc3Cl)ncc1CC2`, above 6.22.
Under `CC(=O)Nc1nc2c(s1)-c1nc(-c3cc(C#CCNS(=O)(=O)Cc4ccccc4)ccc3Cl)ncc1CC2` stands above 6.22; under `CC(=O)Nc1nc2c(s1)-c1nc(-c3cc(C#CCCCNC4CCN(C)CC4)ccc3Cl)ncc1CC2`, above 6.22; under `CC(=O)Nc1nc2c(s1)-c1nc(-c3cc(C#CCNCC(C)(C)C)ccc3Cl)ncc1CC2`, above 6.22.
For the molecule `CC(=O)Nc1nc2c(s1)-c1nc(-c3cc(C#CC4(NC(C)C)CCCCC4)ccc3Cl)ncc1CC2`, the negative-log IC50 (pIC50) was above 6.22.
For the molecule `CC(=O)Nc1nc2c(s1)-c1nc(-c3cc(C#CCNC(=O)NC(C)(C)C)ccc3Cl)ncc1CC2`, the pIC50 was above 6.22.
Under `C=CC#Cc1ccc(Cl)c(-c2ncc3c(n2)-c2sc(NC(C)=O)nc2CC3)c1` stands above 6.22; under `CC(=O)Nc1nc2c(s1)-c1nc(-c3cccc(C#CC4(O)CCN(C(C)C)CC4)c3)ncc1CC2`, above 6.22; under `CC(=O)Nc1nc2c(s1)-c1nc(-c3cc(C#CCO[C@@H]4CN5CCC4CC5)ccc3Cl)ncc1CC2`, above 6.22.
The figure for `CC(=O)Nc1nc2c(s1)-c1nc(-c3cc(C#CCNC(=O)CC4CC4)ccc3Cl)ncc1CC2` is above 6.22; for `CC(=O)Nc1nc2c(s1)-c1nc(-c3cc(C#CC4(O)CCN(C5CCCC5)CC4)ccc3F)ncc1CC2` it is above 6.22; for `CC(=O)Nc1nc2c(s1)-c1nc(-c3cccc(C#CCNC(=O)CC(C)(C)C)c3)ncc1CC2` it is above 6.22.
Under `CC(=O)Nc1nc2c(s1)-c1nc(-c3cc(C#CCNC(=O)CC4CCCCC4)ccc3Cl)ncc1CC2` stands above 6.22.
As to `CC(=O)Nc1nc2c(s1)-c1nc(-c3cc(C#CCn4ccnc4)ccc3Cl)ncc1CC2`, the pIC50 was above 6.22.
The figure for `CC(=O)Nc1nc2c(s1)-c1nc(-c3cccc(C#CCNS(=O)(=O)N(C)C)c3)ncc1CC2` is above 6.22; for `CC(=O)Nc1nc2c(s1)-c1nc(-c3cc(C#CC4CCNCC4)ccc3Cl)ncc1CC2` it is above 6.22; for `CC(=O)Nc1nc2c(s1)-c1nc(-c3cc(C#CCCCN4CCC(N(C)C)CC4)ccc3Cl)ncc1CC2` it is above 6.22.
In turn, `CC(=O)Nc1nc2c(s1)-c1nc(-c3cc(C#CCNS(=O)(=O)N(C)C)ccc3Cl)ncc1CC2` had a pIC50 above 6.22.
Under `CC(=O)Nc1nc2c(s1)-c1nc(-c3cccc(C#CC4(O)CCN(C)CC4)c3)ncc1CC2` stands above 6.22; under `CC(=O)Nc1nc2c(s1)-c1nc(-c3cc(C#CCCN(C)C(C)C)ccc3Cl)ncc1CC2`, above 6.22; under `CNC(=O)NCC#Cc1ccc(Cl)c(-c2ncc3c(n2)-c2sc(NC(C)=O)nc2CC3)c1`, above 6.22.
Under `CCN(CC)S(=O)(=O)NCC#Cc1ccc(Cl)c(-c2ncc3c(n2)-c2sc(NC(C)=O)nc2CC3)c1` stands above 6.22; under `CC(=O)Nc1nc2c(s1)-c1nc(-c3cc(C#CCNC(=O)N4CCCC4)ccc3Cl)ncc1CC2`, above 6.22; under `CC(=O)Nc1nc2c(s1)-c1nc(-c3cccc(C#CCNS(=O)(=O)C4CC4)c3)ncc1CC2`, above 6.22.
The figure for `CC(=O)Nc1nc2c(s1)-c1nc(-c3cc(C#CCCN(C)C)ccc3Cl)ncc1CC2` is above 6.22.
In turn, `CC(=O)Nc1nc2c(s1)-c1nc(-c3cccc(C#CCNC(=O)C4CCCC4)c3)ncc1CC2` showed a pIC50 above 6.22.
Under `CC(=O)Nc1nc2c(s1)-c1nc(-c3cc(C#CCNC(=O)C4CC4)ccc3Cl)ncc1CC2` stands above 6.22; under `CNC(=O)Nc1nc2c(s1)-c1nc(-c3cc(C#CC4CCN(C5CCCC5)CC4)ccc3Cl)ncc1CC2`, above 6.22; under `CC(=O)Nc1nc2c(s1)-c1nc(-c3cc(C#CCN(C)S(=O)(=O)C(C)C)ccc3Cl)ncc1CC2`, above 6.22.
Molecule `CC(=O)Nc1nc2c(s1)-c1nc(-c3cc(C#CCNS(=O)(=O)N4CCOCC4)ccc3Cl)ncc1CC2` had a pIC50 above 6.22.
The figure for `CC(=O)Nc1nc2c(s1)-c1nc(-c3cc(C#CCCCN4CCN(C)CC4)ccc3Cl)ncc1CC2` is above 6.22; for `COC1(C#Cc2ccc(F)c(-c3ncc4c(n3)-c3sc(NC(C)=O)nc3CC4)c2)CCN(C)CC1` it is above 6.22; for `CC(=O)Nc1nc2c(s1)-c1nc(-c3cc(C#CC4CCN(C(=O)CC(C)C)CC4)ccc3Cl)ncc1CC2` it is above 6.22.
Regarding `CC(=O)Nc1nc2c(s1)-c1nc(-c3cc(C#CCNC(=O)C4CCCC4)ccc3Cl)ncc1CC2`, the pIC50 was above 6.22.
Under `CC(=O)Nc1nc2c(s1)-c1nc(-c3cc(C#CCNS(=O)(=O)C(C)C)ccc3Cl)ncc1CC2` stands above 6.22; under `CC(=O)Nc1nc2c(s1)-c1nc(-c3cc(C#CCN4CCN(C(C)C)CC4)ccc3Cl)ncc1CC2`, above 6.22.
The figure for `CC(=O)Nc1nc2c(s1)-c1nc(-c3cc(C#CCCN4CCCCC4)ccc3Cl)ncc1CC2` is above 6.22.
`CC(=O)Nc1nc2c(s1)-c1nc(-c3cc(C#CCNC(=O)CC4CCN(C)CC4)ccc3Cl)ncc1CC2` gave a pIC50 above 6.22.
As to `CC(=O)Nc1nc2c(s1)-c1nc(-c3cc(C#CCN(C)S(=O)(=O)N(C)C)ccc3Cl)ncc1CC2`, the pIC50 is above 6.22.
Under `CC(=O)Nc1nc2c(s1)-c1nc(-c3cc(C#Cc4cncn4C)ccc3Cl)ncc1CC2` stands above 6.22; under `CC(=O)Nc1nc2c(s1)-c1nc(-c3cc(C#CCCN4CCCC4)ccc3Cl)ncc1CC2`, above 6.22; under `CC(=O)Nc1nc2c(s1)-c1nc(-c3cc(C#CC4CCN(C(C)C)CC4)ccc3Cl)ncc1CC2`, above 6.22.
Under `CC(=O)Nc1nc2c(s1)-c1nc(-c3cc(Cl)cc(C#CC4(N)CCCCC4)c3)ncc1CC2` stands above 6.22; under `CC(=O)Nc1nc2c(s1)-c1nc(-c3cc(Cl)cc(C#CCNS(C)(=O)=O)c3)ncc1CC2`, above 6.22; under `CC(=O)Nc1nc2c(s1)-c1nc(-c3cc(C#CCNC(=O)CCC4CCCC4)ccc3Cl)ncc1CC2`, above 6.22.
Under `CC(=O)Nc1nc2c(s1)-c1nc(-c3cc(C#CCNS(N)(=O)=O)ccc3Cl)ncc1CC2` stands above 6.22; under `CC(=O)Nc1nc2c(s1)-c1nc(-c3cccc(C#CC4CCN(C5CCCC5)CC4)c3)ncc1CC2`, above 6.22.
`CC(=O)Nc1nc2c(s1)-c1nc(-c3cc(C#CC4CCN(S(=O)(=O)N(C)C)CC4)ccc3Cl)ncc1CC2` showed a pIC50 above 6.22.
The figure for `CC(=O)Nc1nc2c(s1)-c1nc(-c3cc(C#CCN(C)S(=O)(=O)CC(F)(F)F)ccc3Cl)ncc1CC2` is above 6.22; for `CC(=O)Nc1nc2c(s1)-c1nc(-c3cc(C#CC4CCN(S(C)(=O)=O)CC4)ccc3Cl)ncc1CC2` it is above 6.22; for `CNC(=O)N1CCC(C#Cc2ccc(Cl)c(-c3ncc4c(n3)-c3sc(NC(C)=O)nc3CC4)c2)CC1` it is above 6.22.
For the molecule `CC(=O)Nc1nc2c(s1)-c1nc(-c3cc(C#CC4CCCCC4)ccc3Cl)ncc1CC2`, the pIC50 is above 6.22.
The figure for `CC(=O)Nc1nc2c(s1)-c1nc(-c3cc(C#CCN(C)S(C)(=O)=O)ccc3Cl)ncc1CC2` is above 6.22; for `CC(=O)Nc1nc2c(s1)-c1nc(-c3cc(C#Cc4ccccc4)ccc3Cl)ncc1CC2` it is above 6.22; for `CC(=O)Nc1nc2c(s1)-c1nc(-c3cc(C#CCN4CCN(C)C(=O)C4)ccc3Cl)ncc1CC2` it is above 6.22.
The figure for `CC(=O)Nc1nc2c(s1)-c1nc(-c3cc(C#CCN4CCN(C5CCCC5)CC4)ccc3Cl)ncc1CC2` is above 6.22.
Under `CC(=O)Nc1nc2c(s1)-c1nc(-c3cc(C#CCNC(=O)N(C)C)ccc3Cl)ncc1CC2` stands above 6.22.
Turning to `CC(=O)Nc1nc2c(s1)-c1nc(-c3cc(C#CCN4CCS(=O)(=O)CC4)ccc3Cl)ncc1CC2`, the negative-log IC50 (pIC50) is above 6.22.
Consider `CC(=O)Nc1nc2c(s1)-c1nc(-c3cc(C#CC4(N)CCCCC4)ccc3Cl)ncc1CC2`, for which the pIC50 was above 6.22.
On to `CC(=O)Nc1nc2c(s1)-c1nc(-c3cc(C#CCCN4CCC(N(C)C)CC4)ccc3Cl)ncc1CC2`, for which the pIC50 was above 6.22.
Under `COC1(C#Cc2ccc(F)c(-c3ncc4c(n3)-c3sc(NC(C)=O)nc3CC4)c2)CCN(C2CCCC2)CC1` stands above 6.22; under `CC(=O)Nc1nc2c(s1)-c1nc(-c3cc(C#CC4CCN(C(=O)NC(C)(C)C)CC4)ccc3Cl)ncc1CC2`, above 6.22.
The molecule `CC(=O)Nc1nc2c(s1)-c1nc(-c3cc(Cl)cc(C#CCN(C)C)c3)ncc1CC2` gave a negative-log IC50 (pIC50) above 6.22.
The figure for `CC(=O)Nc1nc2c(s1)-c1nc(-c3cc(C#CCNCC4CCCC4)ccc3Cl)ncc1CC2` is above 6.22.
Under `CC(=O)Nc1nc2c(s1)-c1nc(-c3cc(C#CCN(C)CC(C)C)ccc3Cl)ncc1CC2` stands above 6.22; under `CCS(=O)(=O)N(C)CC#Cc1ccc(Cl)c(-c2ncc3c(n2)-c2sc(NC(C)=O)nc2CC3)c1`, above 6.22.
The figure for `CC(=O)Nc1nc2c(s1)-c1nc(-c3cc(C#CCN(C)C(=O)C4CCCC4)ccc3Cl)ncc1CC2` is above 6.22; for `CC(=O)Nc1nc2c(s1)-c1nc(-c3cc(C#CCCNC(C)C)ccc3Cl)ncc1CC2` it is above 6.22.
For `CC(=O)Nc1nc2c(s1)-c1nc(-c3cc(C#CCN4CCN(C(C)=O)CC4)ccc3Cl)ncc1CC2`, the pIC50 is above 6.22.
Regarding `CC(=O)Nc1nc2c(s1)-c1nc(-c3cc(C#CCCN4CCOCC4)ccc3Cl)ncc1CC2`, the negative-log IC50 (pIC50) was above 6.22.
As for `CNC(=O)N(C)CCC#Cc1ccc(Cl)c(-c2ncc3c(n2)-c2sc(NC(C)=O)nc2CC3)c1`, the negative logarithm of the IC50 (pIC50) is above 6.22.
`CC(=O)Nc1nc2c(s1)-c1nc(-c3cc(C#CCNC(=O)NC(C)C)ccc3Cl)ncc1CC2` showed a pIC50 above 6.22.
The figure for `CC(=O)Nc1nc2c(s1)-c1nc(-c3cc(Cl)cc(C#CCNC(=O)CC(C)(C)C)c3)ncc1CC2` is above 6.22.
